Article PMC12152147, “DDB1 engagement defines the selectivity of S656 analogs for cyclin K degradation over CDK inhibition” (EMBO Reports, 2025)
pIC50: −log10 of the molar value. Where two headings read alike, the source gives them in different places.

What was measured:
CDK1 = target: T1, CDK1 (Homo sapiens, UniProt P06493); experiment: CDK1 in vitro kinase activity, single concentration 1 μM; format: biochemical; conditions: single concentration 1 μM
T1 construct: purchased BPS Bioscience 79597
T1 sequence (P06493 whole entry): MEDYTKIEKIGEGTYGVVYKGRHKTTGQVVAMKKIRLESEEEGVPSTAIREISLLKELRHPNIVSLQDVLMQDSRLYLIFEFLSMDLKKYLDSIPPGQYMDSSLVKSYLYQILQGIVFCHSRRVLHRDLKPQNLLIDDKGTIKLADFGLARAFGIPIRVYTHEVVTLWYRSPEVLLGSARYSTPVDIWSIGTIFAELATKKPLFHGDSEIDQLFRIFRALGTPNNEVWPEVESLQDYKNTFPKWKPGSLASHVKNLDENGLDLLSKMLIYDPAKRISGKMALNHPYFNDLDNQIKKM
T1 sequence (P14635 whole entry partner): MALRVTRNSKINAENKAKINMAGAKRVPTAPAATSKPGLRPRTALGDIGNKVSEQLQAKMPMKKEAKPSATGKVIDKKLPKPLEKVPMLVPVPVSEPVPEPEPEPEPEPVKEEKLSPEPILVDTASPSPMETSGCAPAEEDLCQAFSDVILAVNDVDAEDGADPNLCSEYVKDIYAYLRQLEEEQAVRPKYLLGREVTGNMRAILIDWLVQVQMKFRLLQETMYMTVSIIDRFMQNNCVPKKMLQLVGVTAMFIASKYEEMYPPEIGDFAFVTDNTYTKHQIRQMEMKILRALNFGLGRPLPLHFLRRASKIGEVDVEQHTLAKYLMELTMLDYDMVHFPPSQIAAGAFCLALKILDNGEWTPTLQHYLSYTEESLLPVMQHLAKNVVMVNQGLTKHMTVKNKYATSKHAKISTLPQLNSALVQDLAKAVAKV
Protocol: (§1) Kinase activity was assessed using the kinase assay kits from BPS Bioscience for CDK1, CDK9 and CDK12 with Kinase Glo MAX in duplicates. Compounds were tested at a single concentration of 1 μM for CDK1 and CDK9 activity, and in a dilution ranging from 0.64 nM to 50 μM for CDK12 activity. Chemiluminescence was read using the Neo Synergy BioTek plate reader.

OCI-AML5 cells = experiment: Dose-response proliferative assay in OCI-AML5 (4 days, CellTiterGlo); format: cell-based, H. sapiens; conditions: read-out: IC50 in AML5
Protocol: Cell lines were purchased from the ATCC or donated from collaborators. OCI-AML5 cell line was cultured in αMEM, 10% heat-inactivated FBS supplemented with 10 ng/mL GM-CSF, OCI-AML1, U2OS and HEK293T cell lines in DMEM, 10% heat-inactivated FBS. Cells were maintained at 37 °C in 5% CO2 atmosphere.
Dose-response assays in primary AML specimens were performed as in chemical screen (see above) with the exception that compounds were tested in serial dilution (8 dilutions, 1:4, 10 μM down to 0.5 nM). Dose-response assays in OCI-AML5 cell line were conducted similarly with the following modifications: 300 cells per well were seeded in 50 μL of cell line media and cell viability was evaluated after 4 days in culture.

CDK9/CyclinT = target: T2, CDK9/CyclinT (Homo sapiens, UniProt P50750); experiment: CDK9/CyclinT in vitro kinase activity, single concentration 1 μM; format: biochemical; conditions: single concentration 1 μM
T2 construct: purchased BPS Bioscience 79628
T2 sequence (P50750 whole entry): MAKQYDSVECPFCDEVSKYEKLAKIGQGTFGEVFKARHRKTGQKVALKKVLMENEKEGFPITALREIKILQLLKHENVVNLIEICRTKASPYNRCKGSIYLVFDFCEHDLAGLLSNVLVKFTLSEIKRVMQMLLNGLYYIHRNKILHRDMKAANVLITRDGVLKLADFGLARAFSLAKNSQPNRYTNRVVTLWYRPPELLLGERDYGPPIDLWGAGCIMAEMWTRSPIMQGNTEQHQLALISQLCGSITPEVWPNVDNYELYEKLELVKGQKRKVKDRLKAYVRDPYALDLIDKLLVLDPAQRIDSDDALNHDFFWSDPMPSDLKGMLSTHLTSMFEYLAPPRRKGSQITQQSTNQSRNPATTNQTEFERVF
T2 sequence (O60563 whole entry partner): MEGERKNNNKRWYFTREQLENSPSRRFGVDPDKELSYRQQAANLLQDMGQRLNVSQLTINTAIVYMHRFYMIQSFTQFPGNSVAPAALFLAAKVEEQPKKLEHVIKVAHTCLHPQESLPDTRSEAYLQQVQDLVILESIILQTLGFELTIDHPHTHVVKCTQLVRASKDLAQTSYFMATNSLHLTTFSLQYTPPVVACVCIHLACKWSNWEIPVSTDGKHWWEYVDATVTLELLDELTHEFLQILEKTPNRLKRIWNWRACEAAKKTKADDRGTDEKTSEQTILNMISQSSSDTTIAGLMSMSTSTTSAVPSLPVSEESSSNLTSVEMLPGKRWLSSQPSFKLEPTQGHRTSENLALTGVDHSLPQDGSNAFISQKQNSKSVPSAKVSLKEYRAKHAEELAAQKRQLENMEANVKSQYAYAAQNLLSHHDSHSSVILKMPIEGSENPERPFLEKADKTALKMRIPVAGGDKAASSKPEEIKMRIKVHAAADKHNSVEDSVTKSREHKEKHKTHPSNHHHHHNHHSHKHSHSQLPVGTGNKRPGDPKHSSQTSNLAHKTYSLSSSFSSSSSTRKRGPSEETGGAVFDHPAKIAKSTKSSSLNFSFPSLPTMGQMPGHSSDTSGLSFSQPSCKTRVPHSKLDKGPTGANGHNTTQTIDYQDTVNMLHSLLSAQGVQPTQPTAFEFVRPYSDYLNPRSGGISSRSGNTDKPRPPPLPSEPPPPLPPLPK
Protocol: as §1

cyclin KeGFP = experiment: Cyclin KeGFP reporter system (eGFP/mCherry MFI by flow cytometry);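 note: 10 μM compound for 3 h relative to DMSO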; format: cell-based, H. sapiens; conditions: cyclin K-eGFP reporter
Protocol: We used the cyclin KeGFP reporter system previously described (Słabicki et al, [2020]). Lentiviral vector (Addgene plasmid #169930) was used to infect OCI-AML5 at a MOI of 5 and were selected with puromycin. Cells were seeded in methylcellulose and let grown as colonies for 10 days. Colonies were isolated, expanded and selected based on cyclin KeGFP fluorescence in presence and absence of cyclin K degrader molecules. Selected G7 clone was used for all reported experiments. Fluorescent signal of cyclin KeGFP and mCherry were quantified by flow cytometry (BD LSRII) in each condition and the geometric mean fluorescence intensity (MFI) were calculated using FlowJo (BD Biosciences). The ratio of eGFP to mCherry was normalized to DMSO-treated cells.

[1] = tested on: OCI-AML5 cells expressing shRNAs targeting CDK1, 2, 4, 7, 9, cyclin K; experiment: Dose response in OCI-AML5 expressing shRNAs targeting CDK1, 2, 4, 7, 9, cyclin K or control; format: cell-based, H. sapiens; conditions: for Class: class from shRNA IC50 profile and cyclin K-eGFP degradation; for class based on cellular selectivity: IC50 in shRNA OCI-AML5 cells and cyclin KeGFP degradation
[2] = tested on: OCI-AML5 cells expressing shRNA targeting CUL4A or CUL4B; experiment: Dose response in OCI-AML5 expressing shRNAs targeting CUL4A, CUL4B or control; format: cell-based, H. sapiens; conditions: ratio of IC50 in shCUL4A vs shCTRL OCI-AML5 cells
[3] = Homo sapiens, OCI-AML-5, OCI-AML5 cells
[4] = Homo sapiens, OCI-AML-5, OCI-AML5 expressing shRNA CCNK (cyclin K), read-out: IC50 shRNA CCNK
[5] = Homo sapiens, OCI-AML-5, OCI-AML5 expressing shRNA CDK1, read-out: IC50 shRNA CDK1
[6] = Homo sapiens, OCI-AML-5, OCI-AML5 expressing shRNA CDK2, read-out: IC50 shRNA CDK2
[7] = Homo sapiens, OCI-AML-5, OCI-AML5 expressing shRNA CDK4, read-out: IC50 shRNA CDK4
[8] = Homo sapiens, OCI-AML-5, OCI-AML5 expressing shRNA CDK7, read-out: IC50 shRNA CDK7
[9] = Homo sapiens, OCI-AML-5, OCI-AML5 expressing shRNA CDK9, read-out: IC50 shRNA CDK9
[10] = OCI-AML5 expressing shRNA CCNK (cyclin K), read-out: IC50 shRNA CCNK
[11] = OCI-AML5 expressing shRNA CDK1, read-out: IC50 shRNA CDK1
[12] = OCI-AML5 expressing shRNA CDK2, read-out: IC50 shRNA CDK2
[13] = OCI-AML5 expressing shRNA CDK4, read-out: IC50 shRNA CDK4
[14] = OCI-AML5 expressing shRNA CDK7, read-out: IC50 shRNA CDK7
[15] = OCI-AML5 expressing shRNA CDK9, read-out: IC50 shRNA CDK9

| SMILES | inhibition at 1 µM (CDK1) [%] | pIC50 (OCI-AML5 cells; [3]) | inhibition at 1 µM (CDK9/CyclinT) [%] | pIC50 [1, 4] | pIC50 [1, 5] | pIC50 [1, 6] | pIC50 [1, 7] | pIC50 [1, 8] | pIC50 [1, 9] | % degradation cyclin K-eGFP (cyclin KeGFP) [%] | Class [1] | Ratio shCUL4A/shCTRL [2] | further results |
| --- | --- | --- | --- | --- | --- | --- | --- | --- | --- | --- | --- | --- | --- |
| C=C(C(=O)Nc1ncc(SCc2cccnc2)s1)c1ccc(CC(C)C)cc1 [UOM-005430] | 83 | < 5.00 | 82 | 5.11 | 5.14 | < 5.00 | < 5.00 | < 5.00 | 5.11 | 60 | mixed 1-2 | 0.36 | – |
| O=C(Cc1ccc(Cl)cc1)Nc1ncc(SCc2cccnc2)s1 [UOM-005198] | 51 | 5.53 | 32 | 5.52 | 5.89 | 5.56 | 5.47 | 5.47 | 5.68 | 33 | 2 | 1.12 | class based on cellular selectivity [1]: Class II |
| O=C(Cc1ccc(-c2ccncc2)cc1)Nc1ncc(SCc2cccnc2)s1 [UOM-005550] | 35 | 5.97 | 64 | 6.32 | 6.25 | 6.04 | 6.05 | 6.04 | 6.26 | 35 | mixed 1-2 | 0.87 | – |
| O=C(Cc1cccnc1)Nc1ncc(SCc2cccnc2)s1 [UOM-005249] | 100 | 5.61 | 100 | 5.73 | 6.04 | 5.63 | 5.64 | 5.65 | 5.93 | 10 | 2 | 0.98 | class based on cellular selectivity [1]: Class II |
| COc1ccc(CC(=O)Nc2ncc(SCc3cccnc3)s2)cc1 [UOM-005201] | 69 | 5.52 | 54 | 5.70 | 5.99 | 5.54 | 5.47 | 5.51 | 5.86 | 55 | 2 | 0.99 | class based on cellular selectivity [1]: Class II |
| Cc1ccc(CC(=O)Nc2ncc(SCc3cccnc3)s2)cc1 [UOM-005202] | 65 | 5.47 | 50 | 5.53 | 6.03 | 5.55 | 5.43 | 5.54 | 5.75 | 28 | 2 | 0.7 | – |
| O=C(Cc1ccccn1)Nc1ncc(SCc2cccnc2)s1 [UOM-005566] | – | 5.18 | 15 | 5.22 | 5.41 | 5.15 | 5.05 | 5.12 | 5.26 | 4 | 2 | 1.07 | – |
| Cc1nc(CC(=O)Nc2ncc(SCc3cccnc3)s2)c(C)s1 [UOM-005227] | – | 5.25 | 53 | 5.21 | 5.11 | 5.19 | 5.32 | 5.32 | 5.27 | 0 | – | 1.12 | – |
| CC(C)(C)OC(=O)N1CCC(C(=O)Nc2ncc(SCc3cccnc3)s2)CC1 [UOM-005205] | – | – | – | – | – | – | – | – | – | 32 | – | 0.65 | pIC50 (OCI-AML5 cells; OCI-AML5 cells): 5.53; % CDK9 inhibition (CDK9/CyclinT): 40%; pIC50 [1, 10]: 5.29; pIC50 [1, 11]: 5.52; pIC50 [1, 12]: 5.53; pIC50 [1, 13]: 5.29; pIC50 [1, 14]: 5.48; pIC50 [1, 15]: 5.37 |
| CC(=O)N[C@@H]1CCC[C@H](C(=O)Nc2cc(-c3cnn4c3CC(C)(C)C4)c(Cl)cn2)C1 [AZD4573, reference compound] | 90 | 9.00 | 100 | 8.96 | 8.97 | 8.97 | 8.98 | 8.78 | 9.14 | – | 2 | – | – |
| O=C(Cc1ccc(NC(=O)C23CC4CC(CC(C4)C2)C3)cc1)Nc1ncc(SCc2cccnc2)s1 [UOM-005477] | – | – | – | – | – | – | – | – | – | 6 | 2 | 0.9 | pIC50 (OCI-AML5 cells; OCI-AML5 cells): 5.90; % CDK9 inhibition (CDK9/CyclinT): 81%; pIC50 [1, 10]: 5.99; pIC50 [1, 11]: 6.13; pIC50 [1, 12]: 5.96; pIC50 [1, 13]: 5.92; pIC50 [1, 14]: 6.03; pIC50 [1, 15]: 6.23 |
| O=C(Cc1ccc(NC(=O)c2ccccc2)cc1)Nc1ncc(SCc2cccnc2)s1 [UOM-005478] | – | 5.87 | 82 | 5.97 | 6.26 | 5.97 | 5.98 | 5.99 | 6.45 | 8 | 2 | 0.95 | – |
| O=C(Cc1ccc(C(F)(F)F)cc1)Nc1ncc(SCc2cccnc2)s1 [UOM-005203] | – | 5.37 | 72 | 5.52 | 5.57 | 5.36 | 5.44 | 5.42 | 5.44 | 51 | mixed 1-2 | 1.13 | – |

Continued, in another order:

| inhibition at 1 µM (CDK1) [%] | pIC50 (OCI-AML5 cells; [3]) | inhibition at 1 µM (CDK9/CyclinT) [%] | pIC50 [1, 4] | pIC50 [1, 5] | pIC50 [1, 6] | pIC50 [1, 7] | pIC50 [1, 8] | pIC50 [1, 9] | SMILES | % degradation cyclin K-eGFP (cyclin KeGFP) [%] | Class [1] | Ratio shCUL4A/shCTRL [2] | further results |
| --- | --- | --- | --- | --- | --- | --- | --- | --- | --- | --- | --- | --- | --- |
| 46 | < 5.00 | 39 | < 5.00 | 5.20 | < 5.00 | < 5.00 | < 5.00 | < 5.00 | CC(C)(C)OC(=O)N1CCC(CC(=O)Nc2ncc(SCc3cccnc3)s2)C1 (stereo not shown) [UOM-005226] | 2 | 2 | 1.24 | – |
| – | 5.15 | 64 | 5.27 | 5.47 | 5.27 | 5.35 | 5.54 | 5.52 | Cl.Cl.O=C(CC1CCNC1)Nc1ncc(SCc2cccnc2)s1 (stereo not shown) [UOM-005300] | 5 | 2 | 1.07 | – |
| 34 | < 5.00 | 20 | < 5.00 | 5.49 | < 5.00 | < 5.00 | < 5.00 | 5.23 | O=C(Cc1cnccn1)Nc1ncc(SCc2cccnc2)s1 [UOM-005482] | 0 | 2 | – | – |
| – | 5.41 | 71 | 5.43 | 5.38 | 5.33 | 5.41 | 5.52 | 5.55 | O=C(Nc1ncc(SCc2cccnc2)s1)C1CCNCC1 [UOM-005283] | 4 | – | 0.91 | – |
